Source: PubChem BioAssay (NCI)
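All cell lines were grown in 96-well plates and treated with compound for 48 hours. GI50 = concentration required for 50% inhibition of growth. TGI denotes the concentration required for complete inhibition of growth.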

Key:
Test in all cases: NCI tumour cell line growth inhibition, 48 h
CAKI-1 renal = system: CAKI-1 renal
HCT-15 colon = system: HCT-15 colon
HOP-92 NSCLC = system: HOP-92 NSCLC
KM12 colon = system: KM12 colon
M14 melanoma = system: M14 melanoma
NCI/ADR-RES ovarian = system: NCI/ADR-RES ovarian
OVCAR-5 ovarian = system: OVCAR-5 ovarian
SK-OV-3 ovarian = system: SK-OV-3 ovarian

Compound	GI50 (CAKI-1 renal) [µM]	TGI (CAKI-1 renal) [µM]	GI50 (HCT-15 colon) [µM]	TGI (HCT-15 colon) [µM]	GI50 (HOP-92 NSCLC) [µM]	TGI (HOP-92 NSCLC) [µM]	GI50 (KM12 colon) [µM]	TGI (KM12 colon) [µM]	GI50 (M14 melanoma) [µM]	TGI (M14 melanoma) [µM]	GI50 (NCI/ADR-RES ovarian) [µM]	TGI (NCI/ADR-RES ovarian) [µM]	GI50 (OVCAR-5 ovarian) [µM]	TGI (OVCAR-5 ovarian) [µM]	GI50 (SK-OV-3 ovarian) [µM]	TGI (SK-OV-3 ovarian) [µM]
C=CC(=O)Nc1cc(N2CCN(CC)CC2)ccc1Nc1cc(N(C)C(=O)Nc2c(Cl)c(OC)cc(OC)c2Cl)ncn1	11.1	23.1	6.25	21.3	4.94	21.7	3.09	10.3	4.85	18.7	20.5	70.5	19.4	51.2	12.3	27.5
CCOc1c(N=Nc2ccccc2Cl)c(-c2ccccc2)nn1C(=S)S		70.3		> 100		> 100		> 100		> 100		> 100		> 100		> 100
C#Cc1nc2ccccc2c(=O)[nH]1	1.43	3.47	0.224	0.644	1.14	2.61	1.39	2.94	1.07	3.06	0.927	8.19	1.04	2.59	6.54	40.1
OCc1ccc(-c2cscc2-c2ccc(CO)o2)o1	5	> 100	> 80.1	> 100	16.1	> 94	97.4	> 100	> 100	> 100	32.9	> 100	0.216	1.97	8.98	50.3
Cc1ccc(S(=O)(=O)c2nc(-c3ccccc3)oc2S(C)=O)cc1 (configuration not stated)	1.5	2.84			1.38	2.77	1.95	3.86	1.59	3.25	2.14	4.89	1.85	3.47	15.3	28.6
COc1ccc(C(=O)NNc2nc(Cl)nc(N3CCN(C(c4ccccc4)c4ccccc4)CC3)n2)cc1	1.84	3.48			1.61	3.55	> 100	> 100	1.75	3.58			13.2	33.2	11.9	25.8
O=c1[nH]c2nc(NC3CCOCC3)ncc2cc1Oc1ccc(F)cc1F	> 25	> 25	> 25	> 25	> 25	> 25	> 25	> 25	> 25	> 25	> 25	> 25	> 25	> 25	> 25	> 25
NCCOCCOCCNc1nc(-c2ccc(Cl)cc2)nc(N2CCN(c3ccccn3)CC2)n1	2.01	5.24	1.87	3.85	2.36	7.57	1.84	3.5			3.66	16	2.32	5.11	2.67	6.28
COc1cc(NC(=O)CCSc2nc3ccc(C)cc3c(=O)n2Cc2ccccc2)cc(OC)c1OC	> 100	> 100	> 100	> 100	1.9	7.99	> 100	> 100	24.4	> 100	9.25	> 100	> 100	> 100	4.75	39.3
COc1ccc(C(O)c2cc3c(N)c(C(=O)Nc4cccc(Cl)c4)sc3nc2C)cc1 (configuration not stated)	1.27	> 39.4	1.18	> 49.2	3.66	> 39.9	1.1	> 33.4	0.731	> 36.5	1.11	> 36.1	1.98	> 48.7	1.78	> 40.5
c1cncc(CNCc2cccnc2)c1		> 100		> 100		> 100		> 100		> 100		> 100		> 100		> 100
COc1cc(C)c(C2NC(=O)c3ccccc3N2)cc1C (configuration not stated)		16.2		10		> 86.5		> 100		8.54		0.679		> 24.8		
C1=C2CCCC3=Cc4ccccc4OC23Oc2ccccc21	3.71	> 100	3.68	> 100			3.61	56.7	3.37	> 100	3.18	55.7	3.46	> 100	3.52	> 100
CCCCCCCCNCCC[C@@H](C)[C@H]1CC[C@H]2[C@@H]3[C@H](OCCCN)C[C@H]4C[C@H](OCCCN)CC[C@]4(C)[C@H]3C[C@H](OCCCN)[C@]12C	3.09	15.4	3.39	16.9	0.429	8.46			1.64	4.87	1.93	5.27	2.26	12.5	4.72	21.9
O=C(c1ccccc1)c1c(NCC(O)CN2CCOCC2)n(Cc2ccccc2)c(=O)n(Cc2ccccc2)c1=O (configuration not stated)	32.5	> 100	34.4	> 100	17.9	70.8	40.4	> 100	38.9	> 100	2.17	> 27.4	5.53	> 78.7	> 29.9	> 70.1
Cc1c2cc(Cl)c3ccccc3c2c[n+]2ccccc12	21.8	> 100	41.8	> 100	2.04	27.4	1.95	9.31	3.62	15.5	> 100	> 100	29.7	> 100	10.3	53.5
O=C(NCCc1ccccn1)OCc1nc2nc(Cl)nc(N3CCOCC3)c2[nH]1	1.36	3.04	1.74	5.17	1.15	3.81	2.63	10.8			1.44	6.22	1.67	3.38	6.11	19.5
CC1=Nc2ccccc2/C1=C\c1c(C)[nH]c2ccccc12		29.1		31.5		17.4		26		> 100		38.3		50.9		51.8

Compound	GI50 (CAKI-1 renal) [µM]	TGI (CAKI-1 renal) [µM]	GI50 (HCT-15 colon) [µM]	TGI (HCT-15 colon) [µM]	GI50 (HOP-92 NSCLC) [µM]	TGI (HOP-92 NSCLC) [µM]	GI50 (KM12 colon) [µM]	TGI (KM12 colon) [µM]	GI50 (M14 melanoma) [µM]	TGI (M14 melanoma) [µM]	GI50 (NCI/ADR-RES ovarian) [µM]	TGI (NCI/ADR-RES ovarian) [µM]	GI50 (OVCAR-5 ovarian) [µM]	TGI (OVCAR-5 ovarian) [µM]	GI50 (SK-OV-3 ovarian) [µM]	TGI (SK-OV-3 ovarian) [µM]
COC(=O)COc1ccc(/C=C2/N=C(c3ccccc3)N(c3c(C)n(C)n(-c4ccccc4)c3=O)C2=O)cc1	> 100	> 100	66.5	> 100	25.1	55.1	26.6	84.2	32.5	> 100	54.8	> 100	62.4	> 100	17.3	37.9
CC1=Cc2ccc(C)cc2C(=O)C1=O		36.3		47.1		17.6		34.5		10.5		46.8		37.2		27
CSCCCNC(=O)c1ccc2c(c1)/C(=C/c1[nH]c(C)cc1C)C(=O)N2			0.44	> 100	1.03	> 100	0.43	> 100	0.284	> 100			3.85	> 100	0.366	62.8
C=C1CCC2(C#N)[C@H]3[C@H](CC[C@@H]2C)[C@@H](C)C[C@@H](CC(C)(C)NC(=O)CN2CCC2=O)[C@H]13 (some centres not stated)	10.1	28.8	3.68	26.8	3.12	27.5	3.36	15	4.56	17.8	11.3	38.4	10.7	22.5	15.8	50.2
Cc1c(-c2ccnc(N)n2)c2c(n1Cc1ccccc1)C(=O)c1ccccc1C2=O	4.66	52.9	4.8	> 100	> 100	> 100	8.82	30.4	16.2	> 100	13.3	> 100	47.4	> 100	18.2	77.4
C=C1C(=O)OC2CC(C)C3CC(O)OC(OCC)C3(C)CC12 (configuration not stated)		42.9		21.3		35.1		42.6		28.5		39.2		54.4		87.2
Cc1cc(N=C2C=C(Br)C(=O)C(Br)=C2)cc(CN(CC(=O)O)CC(=O)O)c1O		> 100		> 100						> 100		> 100		> 100		> 100
COc1cc2c(cc1OC)C(=O)/C(=C/c1cc(-c3ccc4c(c3)OCO4)n[nH]1)C2	1.5	3	1.12	2.81			1.29	2.73	1.82	3.4	2.25	6.87	1.56	3	2.89	7.16
O=C([O][Sn]([O]C(=O)c1ccccn1)([c]1ccccc1)[c]1ccccc1)c1ccccn1	1.61	3.98	6.95	20.4			13.2	25.9	4.56	15.8	11.8	24.8	16.5	30.1	55.5	> 100
c1ccc2c(c1)SCCCSCCSCCCS2				> 100		> 100		> 100		> 100		> 100		> 100		> 100
COC(=O)C1C(O)C(C)C(O)C(C)C=C(C)C2=C3C(=C(C)C(=O)c4c(O)c(c(C)c(OC(C)=O)c43)NC(=O)C(C)=C/C=C\C(C)C(O)C(C)C1O)OCO2 (configuration not stated)				65.9		> 100		99.6		68.9		> 100		> 100		> 100
O=C(Nn1c(-c2ccccc2)nc2ccccc2c1=O)c1ccccc1O				> 100		> 100		> 100		> 100		> 100		> 100		> 100
COc1ncnc(S(=O)(=O)c2ccc(N=C3C(=O)N(CN4CCN(c5cc6c(cc5F)c(=O)c(C(=O)O)cn6C5CC5)CC4)c4ccc(Cl)cc43)cc2)c1OC	12.7	> 50	19.7	> 50	> 50	> 50	24.2	> 50	> 50	> 50	> 50	> 50	> 50	> 50		
CC(C)(C)OC(=O)NCCCn1c2c(c3ccccc3c1=O)C(=O)c1ccccc1-2	6.86	22.2	> 100	> 100	12.5	43.5	67	> 100	> 100	> 100	6.69	98.6			25	> 100
COc1cc2c(cc1OCCCCCCN1CCN(CC(=O)Nc3ccc(Cl)cc3C(=O)c3ccccc3Cl)CC1)N=CC1CCCN1C2=O (configuration not stated)	0.151	0.421	0.518	1.18	0.177	0.396					0.733	2.48	0.567	1.34	0.494	1.17
COC(=O)C1=C(C(=O)OC)C2(C)C=CC1O2 (configuration not stated)				29.7		24.4				32.5		37.6		31.5		> 100
O=C(Nc1ccc(-c2nc(-c3cccc(OCCN4CCOCC4)c3)c(-c3ccnc(Br)c3)[nH]2)cc1)c1ccccc1	1.84	5.27	0.72	3.2	2.01	8.16			1.8	4.36	5.2	> 100	3.73	> 100	2.15	4.79
